{"source": "patent US10196364B2", "about": "“Pyrimidine carboxamides as sodium channel blockers” (Purdue Pharma L.P., priority 2013, dated 2019)", "key": {"[1]": {"tested_on": "SNL-induced mechanical hyperalgesia", "assay": "SNL-induced mechanical hyperalgesia model in rats (paw pressure test, PWT)", "type": "in vivo, rat", "settings": "dosed orally at 100 mg/kg (vehicle: 0.5% methyl cellulose) one hour before testing", "experimental": "Each experiment uses rats weighing between 200-260 g at the start of the experiment. The rats are group-housed and have free access to food and water at all times, except prior to oral administration of a test compound when food is removed for 16 h before dosing. A control group acts as a comparison to rats treated with a Compound of the Disclosure. The control group is administered the carrier as used for the test compound. The volume of carrier administered to the control group is the same as the volume of carrier and test compound administered to the test group. In the Chung model, the spinal nerve ligation (SNL) model of neuropathic pain is used to produce mechanical hyperalgesia, thermal hyperalgesia, and tactile allodynia in rats. Surgery is performed under isoflurane/O2 inhalation anesthesia. Following induction of anesthesia a 3 cm incision is made and the left paraspinal muscles are separated from the spinous process at the L4-S2 levels. The L6 transverse process is carefully removed with a pair of small rongeurs to identify visually the L4-L6 spinal nerves. […] The animals are assessed for response to noxious mechanical stimuli by determining PWT, as described below, prior to surgery (baseline), then immediately prior to and 1, 3, and 5 hours after being administered a Compound of the Disclosure or vehicle, for the left rear paw of the animal. The animals can also be assessed for response to noxious thermal stimuli or for tactile allodynia, as described below. […] Sensitivity to noxious mechanical stimuli was measured in animals using the paw pressure test to assess mechanical hyperalgesia. In rats, hind paw withdrawal thresholds (“PWT”), measured in grams, in response to a noxious mechanical stimulus were determined using an analgesymeter (Model 7200, commercially available from Ugo Basile of Italy), as described in Stein (Biochemistry & Behavior 31: 451-455 (1988)). […] PWT was determined once for each rat at each time point. PWT can be measured only in the injured paw, or in both the injured and non-injured paw. […]"}, "[2]": {"target": "Nav1.8 (Homo sapiens, UniProt Q9Y5Y9)", "sequence (Q9Y5Y9 whole entry, looked up)": "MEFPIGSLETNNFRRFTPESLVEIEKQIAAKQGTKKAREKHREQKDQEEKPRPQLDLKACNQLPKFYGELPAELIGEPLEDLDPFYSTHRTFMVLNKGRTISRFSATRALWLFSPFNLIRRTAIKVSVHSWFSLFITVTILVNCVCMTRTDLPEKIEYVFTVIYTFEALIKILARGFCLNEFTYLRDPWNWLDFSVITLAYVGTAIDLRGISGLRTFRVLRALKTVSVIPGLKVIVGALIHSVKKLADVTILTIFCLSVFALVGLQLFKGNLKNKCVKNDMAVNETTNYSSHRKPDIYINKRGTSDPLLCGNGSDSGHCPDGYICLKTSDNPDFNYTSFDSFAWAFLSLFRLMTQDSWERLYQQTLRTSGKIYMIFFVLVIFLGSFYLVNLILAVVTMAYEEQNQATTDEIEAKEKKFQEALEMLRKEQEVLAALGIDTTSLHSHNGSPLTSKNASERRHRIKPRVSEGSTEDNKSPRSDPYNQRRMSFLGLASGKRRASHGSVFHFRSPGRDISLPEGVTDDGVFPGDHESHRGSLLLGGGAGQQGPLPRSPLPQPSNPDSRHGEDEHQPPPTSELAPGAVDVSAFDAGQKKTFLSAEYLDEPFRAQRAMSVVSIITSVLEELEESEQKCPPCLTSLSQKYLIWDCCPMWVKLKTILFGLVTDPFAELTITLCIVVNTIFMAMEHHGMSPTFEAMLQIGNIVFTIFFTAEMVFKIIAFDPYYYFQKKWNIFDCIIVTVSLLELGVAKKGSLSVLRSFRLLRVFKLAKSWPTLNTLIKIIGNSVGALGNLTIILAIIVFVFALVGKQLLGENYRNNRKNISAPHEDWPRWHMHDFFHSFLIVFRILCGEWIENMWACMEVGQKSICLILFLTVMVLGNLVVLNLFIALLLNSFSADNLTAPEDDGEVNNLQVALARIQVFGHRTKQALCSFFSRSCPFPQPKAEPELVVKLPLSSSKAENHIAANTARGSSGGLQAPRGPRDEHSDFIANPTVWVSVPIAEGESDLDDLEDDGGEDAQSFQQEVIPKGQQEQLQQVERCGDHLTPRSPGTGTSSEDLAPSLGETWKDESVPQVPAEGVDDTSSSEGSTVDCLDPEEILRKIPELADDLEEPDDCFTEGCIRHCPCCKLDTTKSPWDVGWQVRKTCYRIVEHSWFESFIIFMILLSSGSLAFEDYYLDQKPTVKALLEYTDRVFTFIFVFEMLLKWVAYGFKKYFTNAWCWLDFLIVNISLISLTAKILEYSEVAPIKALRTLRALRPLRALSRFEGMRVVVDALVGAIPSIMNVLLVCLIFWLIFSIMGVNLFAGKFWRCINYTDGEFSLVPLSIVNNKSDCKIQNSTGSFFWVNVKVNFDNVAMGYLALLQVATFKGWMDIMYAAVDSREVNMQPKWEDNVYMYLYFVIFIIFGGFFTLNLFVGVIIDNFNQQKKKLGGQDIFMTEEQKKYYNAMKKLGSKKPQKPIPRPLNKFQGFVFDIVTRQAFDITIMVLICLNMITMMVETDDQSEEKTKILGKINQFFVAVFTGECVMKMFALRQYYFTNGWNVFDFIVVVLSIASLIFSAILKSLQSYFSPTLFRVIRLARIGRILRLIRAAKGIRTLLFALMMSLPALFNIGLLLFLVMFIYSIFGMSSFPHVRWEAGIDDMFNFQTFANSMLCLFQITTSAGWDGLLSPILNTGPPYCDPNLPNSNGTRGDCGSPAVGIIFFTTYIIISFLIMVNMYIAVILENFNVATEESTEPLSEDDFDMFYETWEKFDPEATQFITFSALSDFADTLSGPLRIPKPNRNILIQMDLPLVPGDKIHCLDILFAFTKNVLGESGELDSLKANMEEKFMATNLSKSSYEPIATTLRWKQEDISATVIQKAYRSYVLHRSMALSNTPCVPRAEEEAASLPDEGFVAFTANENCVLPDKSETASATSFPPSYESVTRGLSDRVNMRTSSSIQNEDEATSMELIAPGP", "settings": "read-out: TTX IC50; cited from earlier work"}, "[3]": {"target": "Nav1.3 (Homo sapiens, UniProt Q9NY46)", "sequence (Q9NY46 whole entry, looked up)": "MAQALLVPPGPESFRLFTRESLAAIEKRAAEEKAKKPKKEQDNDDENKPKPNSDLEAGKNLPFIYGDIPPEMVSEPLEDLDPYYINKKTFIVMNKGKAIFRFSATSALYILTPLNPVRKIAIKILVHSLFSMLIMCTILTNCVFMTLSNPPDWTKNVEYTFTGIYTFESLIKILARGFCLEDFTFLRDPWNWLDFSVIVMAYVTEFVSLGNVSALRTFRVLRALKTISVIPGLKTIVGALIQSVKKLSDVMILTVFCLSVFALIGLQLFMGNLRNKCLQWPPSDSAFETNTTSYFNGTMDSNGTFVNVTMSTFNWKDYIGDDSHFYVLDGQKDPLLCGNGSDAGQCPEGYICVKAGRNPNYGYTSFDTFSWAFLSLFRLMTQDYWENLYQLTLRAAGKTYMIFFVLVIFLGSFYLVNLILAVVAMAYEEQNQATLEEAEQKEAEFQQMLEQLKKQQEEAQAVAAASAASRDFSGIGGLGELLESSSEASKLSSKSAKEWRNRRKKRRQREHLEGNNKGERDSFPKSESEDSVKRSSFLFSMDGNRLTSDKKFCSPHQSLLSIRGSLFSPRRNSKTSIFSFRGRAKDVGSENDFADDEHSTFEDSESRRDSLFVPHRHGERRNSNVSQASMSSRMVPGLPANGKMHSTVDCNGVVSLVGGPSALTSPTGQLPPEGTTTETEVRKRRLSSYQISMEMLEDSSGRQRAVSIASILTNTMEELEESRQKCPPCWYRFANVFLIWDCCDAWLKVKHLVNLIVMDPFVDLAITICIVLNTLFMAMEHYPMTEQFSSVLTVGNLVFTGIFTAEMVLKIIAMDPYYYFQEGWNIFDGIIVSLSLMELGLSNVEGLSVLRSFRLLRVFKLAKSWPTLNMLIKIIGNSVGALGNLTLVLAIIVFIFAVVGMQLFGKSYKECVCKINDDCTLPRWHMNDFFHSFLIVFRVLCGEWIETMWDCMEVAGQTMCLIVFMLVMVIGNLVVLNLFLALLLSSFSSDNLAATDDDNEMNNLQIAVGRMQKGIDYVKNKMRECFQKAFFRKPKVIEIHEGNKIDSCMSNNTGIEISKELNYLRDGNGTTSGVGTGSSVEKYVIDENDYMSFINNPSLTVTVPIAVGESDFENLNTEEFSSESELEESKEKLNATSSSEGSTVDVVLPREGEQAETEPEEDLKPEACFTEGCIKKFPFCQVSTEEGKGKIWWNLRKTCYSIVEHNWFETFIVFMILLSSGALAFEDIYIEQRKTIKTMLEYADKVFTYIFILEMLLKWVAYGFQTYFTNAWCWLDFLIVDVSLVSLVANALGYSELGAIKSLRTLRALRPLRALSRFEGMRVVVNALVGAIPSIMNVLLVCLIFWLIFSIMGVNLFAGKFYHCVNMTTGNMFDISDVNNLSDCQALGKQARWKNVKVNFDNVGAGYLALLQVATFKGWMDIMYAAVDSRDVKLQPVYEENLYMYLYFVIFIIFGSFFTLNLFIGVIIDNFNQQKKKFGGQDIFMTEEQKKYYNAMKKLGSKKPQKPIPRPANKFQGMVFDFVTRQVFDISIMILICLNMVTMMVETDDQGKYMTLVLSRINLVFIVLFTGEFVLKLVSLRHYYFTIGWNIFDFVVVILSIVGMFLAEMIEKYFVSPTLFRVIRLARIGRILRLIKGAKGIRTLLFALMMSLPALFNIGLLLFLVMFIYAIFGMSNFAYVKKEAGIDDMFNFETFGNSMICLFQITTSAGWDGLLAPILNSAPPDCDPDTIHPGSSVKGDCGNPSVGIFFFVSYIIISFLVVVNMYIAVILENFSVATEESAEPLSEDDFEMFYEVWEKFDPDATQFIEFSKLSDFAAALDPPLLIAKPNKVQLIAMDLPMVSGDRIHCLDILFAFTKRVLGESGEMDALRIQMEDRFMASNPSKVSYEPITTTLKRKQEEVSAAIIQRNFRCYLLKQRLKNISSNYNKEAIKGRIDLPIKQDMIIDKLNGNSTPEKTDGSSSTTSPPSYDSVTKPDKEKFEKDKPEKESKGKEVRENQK", "settings": "read-out: TTX IC50; cited from earlier work"}}}
{"smiles": "NC(=O)c1cc(N[C@H]2CCNC2=O)nc(-c2ccc(Oc3ccc(C(F)(F)F)cn3)cc2)n1", "note": "[compound 99, (S)-6-((2-oxopyrrolidin-3-yl)amino)-2-(4-((5-(trifluoromethyl)pyridin-2-yl)oxy)phenyl)pyrimidine-4-carboxamide]", "values": [{"measurement": "SNL-induced mechanical hyperalgesia in rats", "setting": "[1]", "value": "reduced SNL-induced mechanical hyperalgesia"}]}
{"smiles": "C[C@H](Oc1cc(C(N)=O)nc(-c2ccc(Oc3ccc(C(F)(F)F)cc3)cc2)n1)C(N)=O", "note": "[compound 98]", "values": [{"measurement": "SNL-induced mechanical hyperalgesia in rats", "setting": "[1]", "value": "reduced SNL-induced mechanical hyperalgesia"}]}
{"smiles": "NC1=N[C@H](O)[C@H]2[C@H]3O[C@]4(O)O[C@@H]([C@@H](O)[C@@]2(N1)[C@@H]4O)[C@]3(O)CO", "note": "[TTX, tetrodotoxin]", "values": [{"measurement": "IC50", "setting": "[2]", "value": 50, "unit": "µM"}, {"measurement": "IC50", "setting": "[3]", "value": 0.015, "unit": "µM"}]}
{"smiles": "C[C@H](Nc1cc(C(N)=O)nc(-c2ccc(Oc3ccc(OC(F)(F)F)cc3)cc2)n1)C(N)=O", "note": "[Cpd No. 84, (S)-6-((1-amino-1-oxopropan-2-yl)amino)-2-(4-(4-(trifluoromethoxy)phenoxy)phenyl)pyrimidine-4-carboxamide]", "values": [{"measurement": "SNL-induced mechanical hyperalgesia in rats", "setting": "[1]", "value": "reduced SNL-induced mechanical hyperalgesia"}]}
